Laboratory results reported in patent US8987167B2, “Low volatile amine salts of anionic pesticides” (BASF SE, priority 2009, dated 2015).
Where two headings read alike, the source gives them in different places.

What was measured:
[1] = Volatility determined by TGA (thermal gravimetric analysis); assay type: physicochemical
Experimental: The volatility of the aqueous solutions of dicamba (480 g/l) or 2,4-D (250 g/l) as prepared in Example 1 was determined by analyzing the wt % loss per minute as calculated by the slope between 400 min and 1200 min of a TGA (thermal gravimetric analysis) analysis. The measurement conditions on a TA Instrument TGA Q50 were as follows: Pan type: Platinum; sample size 25 μl leveling uniformly on pan surface, balance purge flow 40 ml/min; sample purge flow 60 ml/min; temperature procedure: Start at 20° C., ramp 10° C./min to 100° C., then isothermal for 1200 min.
The volatility of the aqueous solutions of glyphosate salts as prepared in Example 6 was determined by analyzing the wt % loss per minute as described in Example 3.

[2] = 30% humidity; for Volatility after 2 weeks (wt % loss) / Volatility after 4 weeks (wt % loss): Petri dish, 480 g/l solution diluted 1:50, 50° C., forced air flow, loss of dicamba acid by HPLC
Experimental: A dicamba sample of the aqueous solutions of dicamba (480 g/l) as prepared in Example 1 (Table 1, entry 2) was diluted with distilled water in a ratio of 1:50. To help spreading of the samples uniformly on the surface of the plate, Silwet L-77 was added (0.1 wt %). A total of 300 μl of this diluted sample was applied per Petri dish (diameter 5 cm). The dishes were kept at an environment chamber (Barnstead Environ-Cab Lab-line 680A) with forced air flow (air vent out) up to one month at 50° C. and 30% humidity. Afterwards the plates were extracted with acetic acid/methanol and the pesticide quantified by HPLC (Columbus C18 column) to determine the volatile loss of dicamba acid.

[3] = pH 7
[4] = 2,4-D salts, 250 g/l, TGA, normed, dimethylamine salt = 100.0
[5] = 2,4-D salts, aqueous solution 250 g/l, TGA isothermal at 100° C., slope between 400 min and 1200 min
[6] = Dicamba salts, 480 g/l, TGA, normalized, dicamba acid = 100.0
[7] = Dicamba salts, aqueous solution 480 g/l, TGA isothermal at 100° C., slope between 400 min and 1200 min
[8] = soybean injury (epinasty and stunting) 14 days after 24 h vapour exposure to Petri dishes treated with 4480 g active ingredient per ha, normalized to 30% for the 2-(-aminoethoxy)ethanol salt
[9] = Glyphosate salts, aqueous solution 480 g/l, TGA

Experimental for soybean plants: Soybeans were grown in a 3 inch (7.6 cm) pots for approximately 10 days until the first trifoliate is unfolded (not fully expanded). […] Immediately after treatment, eight Petri dishes and two soybean plants were placed in a tray (25×51 cm) and covered with a plastic dome (25×51×20 cm). The covered trays were placed in a greenhouse with temperature maintained at 25-35° C. and 50-80% humidity. After 24 h of exposure, the plastic dome was removed.

CN(CCCN)CCCN.COc1c(Cl)ccc(Cl)c1C(=O)O
Volatility (normalized) [1]: 0.5 | Volatility (wt % loss per min) [1]: 0.0003 wt % loss per min | Injury (%) (soybean plants; in vivo): 7%

CN(CCCN)CCCN.O=C(O)CNCP(=O)(O)O
Volatility (wt % loss per min) [1]: 0.002 wt % loss per min

NCCNCCO.O=C(O)COc1ccc(Cl)cc1Cl [2,4-D salt: Aminoethylethanolamine]
Volatility (normed) [1, 4]: 35.7 | Volatility (wt % loss per min) [1, 5]: 0.002 wt % loss per min

NCCNCCN.O=C(O)COc1ccc(Cl)cc1Cl [2,4-D salt: Diethylenetriamine]
Volatility (normed) [1, 4]: 13.7 | Volatility (wt % loss per min) [1, 5]: 0.0008 wt % loss per min

CNC.O=C(O)COc1ccc(Cl)cc1Cl [2,4-D salt: Dimethylamine, reference compound]
Volatility (normed) [1]: 100.0 | Volatility (wt % loss per min) [1]: 0.006 wt % loss per min

CN(C)CCCNCCCN(C)C.O=C(O)COc1ccc(Cl)cc1Cl [2,4-D salt: Jeffcat ® Z-130]
Volatility (normed) [1, 4]: 14.8 | Volatility (wt % loss per min) [1, 5]: 0.0008 wt % loss per min

COc1c(Cl)ccc(Cl)c1C(=O)O [Dicamba acid, dicamba, reference compound]
Volatility (normalized) [1, 6]: 100.0 | Volatility (wt % loss per min) [1, 7]: 0.060 wt % loss per min | Injury (%) (soybean plants; [8]): 67%

COc1c(Cl)ccc(Cl)c1C(=O)O.NCCOCCO [Dicamba salt: 2-(-Aminoethoxy)ethanol, dicamba 2-(-Aminoethoxy)ethanol salt, reference compound]
Volatility (normalized) [1, 6]: 5.4 | Volatility (wt % loss per min) [1, 7]: 0.0032 wt % loss per min | Injury (%) (soybean plants; [8]): 30% | Volatility after 2 weeks (wt % loss) [2]: 29.3 wt % loss | Volatility after 4 weeks (wt % loss) [2]: 57.0 wt % loss

COc1c(Cl)ccc(Cl)c1C(=O)O.NCCNCCO [Dicamba salt: Aminoethylethanolamine, aminoethylethanolamine salt of dicamba]
Volatility (normalized) [1, 6]: 3.1 | Volatility (wt % loss per min) [1, 7]: 0.0018 wt % loss per min | Injury (%) (soybean plants; [8]): 5% | volatility compared to commercial dicamba salt formulations (Petri dish) ([2]; 50° C., up to one month): reduced volatility compared to commercial dicamba salt formulations | Volatility after 2 weeks (wt % loss) [2]: 6.2 wt % loss | Volatility after 4 weeks (wt % loss) [2]: 20.6 wt % loss

COc1c(Cl)ccc(Cl)c1C(=O)O.NCCN1CCNCC1 [Dicamba salt: Aminoethylpiperazine]
Volatility (normalized) [1, 6]: 0.4 | Volatility (wt % loss per min) [1, 7]: 0.0002 wt % loss per min | Injury (%) (soybean plants; [8]): 19%

COc1c(Cl)ccc(Cl)c1C(=O)O.NCCNCCN [Dicamba salt: Diethylenetriamine]
Volatility (normalized) [1, 6]: 0.7 | Volatility (wt % loss per min) [1, 7]: 0.0004 wt % loss per min | Injury (%) (soybean plants; [8]): 14%

CNC.COc1c(Cl)ccc(Cl)c1C(=O)O [Dicamba salt: Dimethylamine, dicamba dimethylamine salt, reference compound]
Volatility (normalized) [1]: 17.8 | Volatility (wt % loss per min) [1]: 0.011 wt % loss per min | Injury (%) (soybean plants; in vivo): 48% | Volatility after 2 weeks (wt % loss) [2]: 98.7 wt % loss | Volatility after 4 weeks (wt % loss) [2]: 100 wt % loss

CC1(C)CC(N)CC(C)(CN)C1.COc1c(Cl)ccc(Cl)c1C(=O)O [Dicamba salt: Isophorone diamine]
Volatility (normalized) [1]: 0.4 | Volatility (wt % loss per min) [1, 7]: 0.0002 wt % loss per min | Injury (%) (soybean plants; [8]): 19%

CN(C)CCCN(C)CCCN(C)C.COc1c(Cl)ccc(Cl)c1C(=O)O [Dicamba salt: Jeffcat ZR-40]
Volatility (normalized) [1, 6]: 5.0 | Volatility (wt % loss per min) [1, 7]: 0.0030 wt % loss per min

CN(C)CCCNCCCN(C)C.COc1c(Cl)ccc(Cl)c1C(=O)O [Dicamba salt: Jeffcat ® Z-130]
Volatility (normalized) [1, 6]: 2.9 | Volatility (wt % loss per min) [1, 7]: 0.0017 wt % loss per min | Injury (%) (soybean plants; [8]): 5%

NCCN1CCNCC1.O=C(O)CNCP(=O)(O)O [Glyphosate salt: Aminoethylpiperazine]
Volatility (wt % loss per min) [1, 9]: 0.002 wt % loss per min

NCCNCCN.O=C(O)CNCP(=O)(O)O [Glyphosate salt: Diethylenetriamine, glyphosate diethylenetriamine salt, reference compound]
Volatility (wt % loss per min) [1, 9]: 0.002 wt % loss per min

CC1(C)CC(N)CC(C)(CN)C1.O=C(O)CNCP(=O)(O)O (stereo not drawn) [Glyphosate salt: Isophorone diamine]
Volatility (wt % loss per min) [1, 9]: 0.002 wt % loss per min

COc1c(Cl)ccc(Cl)c1C(=O)O.NCCCN1CCOCC1 [aminopropylmorpholine (APM) salt of dicamba, reference compound]
solubility in water [3]: ≤ 300 mg/mL | Volatility expected for a concentration of 480 g/l ([1]; dicamba salt, 480 g/l (solution could not be prepared), compared with 0.0021 wt % loss per min at 300 g/l): expected to be higher | Volatility (wt % loss per min) ([1]; dicamba salt, aqueous solution 300 g/l, TGA): 0.0021 wt % loss per min
